Consider 6 compounds from patent US12491452B2, “Extraction method and composition obtained therefrom” (NATURALIA INGREDIENTS S.R.L., priority 2018, dated 2025).

The conditions of series [1]: cited from earlier work.
Series [2] can be described thus: Stability of CBDA and CBD in inclusion complexes of Eletta Campana CS inflorescence and HP-β-CD in water, HPLC-UV. The series is classed as physicochemical. The following applies: for cannabinoid concentration: HP-β-CD aqueous extract. The method, then: The official method reported in the German Pharmacopoeia of Cannabis Flos (https://www.MonographCannabisFlos.pdf) comprises three extraction and filtering cycles of 500 mg of inflorescence with 20, 12.5 and 12.5 mL of ethanol 96% respectively. The ethanol liquid phase was brought to a volume of 50 mL in a volumetric flask with clean 96% ethanol. Said extract was filtered on a regenerated cellulose filter with pore diameter 0.45 μm. A 1 mL portion was diluted with 9 mL of 96% ethanol for chromatographic analysis. For each cannabinoid a calibration curve was constructed for the quantification thereof within the extracts and in the aqueous formulations of the inclusion complexes with the inflorescence. The calibration curve was constructed with certified standards (Cerilliant Cannabinoid Reference Standards, Cerilliant Corporation, Texas, USA) in a concentration range of 0.25-1.00 μg/mL. The titrations were performed following the method published by Citti et al. [Citti et al., Journal of Pharmaceutical and Biomedical Analysis 2016, 128, 201-209] with the use of high-performance liquid chromatography coupled with a UV detector (HPLC-UV).
After filtering, both the solutions were then transferred to an amber-colored closed container. One container was kept at ambient temperature (25° C.) in the dark and the other in the refrigerator at 8° C. The concentration of the cannabinoids, in the particular example of CBDA and CBD, was measured at different times to verify the stability thereof, analyzing a portion by HPLC-UV. […] The percentage CBDA concentration difference with reference to time 0 is indicated in brackets.

For series [3] the following is noted: cited from earlier work. The source holds these as a separate data set.

Where two headings read alike, the source gives them in different places.

Regarding 2-Hydroxypropyl-γ-cyclodextrin, in series [1], the “Solubility in pure water (mg/ml) at approx. 25° C.” value (shortened to “Solubility in pure water (mg/ml)”) was >500 mg/mL.

For `C=C(C)[C@@H]1CCC(C)=C[C@H]1c1c(O)cc(CCCCC)cc1O` [CBD, 2-[(1R,6R)-3-methyl-6-(prop-1-en-2-yl)cyclohex-2-enyl]-5-pentylbenzene-1,3-diol, reference compound], the cannabinoid concentration in series [2] (8° C., 0 days) is 0.16 µg/mL; in series [2] (8° C., 14 days) it was 0.12 µg/mL; in series [2] (8° C., 45 days), 0.17 µg/mL; in series [2] (8° C., 60 days) it was 0.14 µg/mL; in series [2] (8° C., 100 days), 0.17 µg/mL; in series [2] (25° C. in the dark, 0 days), 0.14 µg/mL. Moreover, the cannabinoid concentration in series [2] (25° C. in the dark, 14 days) turned out to be 0.56 µg/mL; in series [2] (25° C. in the dark, 45 days) it was 0.78 µg/mL; in series [2] (25° C. in the dark, 60 days) it was 1.10 µg/mL; in series [2] (25° C. in the dark, 100 days) it was 2.93 µg/mL. The “stability of the formulation (in words)” value in series [2] (formulation kept at 8° C., 100 days) is reported as “remain surprisingly stable”. For the same compound, the “drop of concentration in water” value in series [3] (infusion without CD, 25° C., period of 7 days) is given as 60%; in series [3] (tisane without CD kept at 4° C., 7 days), 50%.

As for `C=C(C)[C@@H]1CCC(C)=C[C@H]1c1c(O)cc(CCCCC)c(C(=O)O)c1O` [CBDA, 2,4-Dihydroxy-3-[(1R,6R)-3-methyl-6-(1-methylethenyl)-2-cyclohexen-1-yl]-6-pentylbenzoic acid], the “stability of the formulation (in words)” value in series [2] is listed as “loss (albeit very slow”. For the same compound, the “percentage CBDA concentration difference with reference to time 0” value in series [2] (8° C., 14 days) was “+1.8%”; in series [2] (8° C., 45 days) it was “+1.4%”; in series [2] (8° C., 60 days) it was “+0.6%”; in series [2] (8° C., 100 days), “+1.4%”; in series [2] (25° C., 14 days), −9.9%; in series [2] (25° C., 45 days) it was −30.7%. The “percentage CBDA concentration difference with reference to time 0” value was −47.6% in series [2] (25° C., 60 days) and −50.1% in series [2] (25° C., 100 days). Also, the cannabinoid concentration in series [2] (8° C., 0 days) amounted to 6.81 µg/mL; in series [2] (8° C., 14 days), 6.94 µg/mL; in series [2] (8° C., 45 days), 6.91 µg/mL; in series [2] (8° C., 60 days), 6.86 µg/mL; in series [2] (8° C., 100 days), 6.91 µg/mL; in series [2] (25° C. in the dark, 0 days) it was 6.45 µg/mL. Also, the cannabinoid concentration in series [2] (25° C. in the dark, 14 days) was determined as 5.81 µg/mL; in series [2] (25° C. in the dark, 45 days), 4.47 µg/mL; in series [2] (25° C. in the dark, 60 days), 3.38 µg/mL; in series [2] (25° C. in the dark, 100 days), 3.21 µg/mL. Also, in series [3] (infusion without CD, both at 25° C. and at 4° C.), the “time beyond which stability in water is not guaranteed” value is ≤ 14 days.

For the compound 2-hydroxypropyl-β-cyclodextrin, the “Solubility in pure water (mg/ml)” value in series [1] is >600 mg/mL.

Turning to Randomly methylated β-Cyclodextrin, in series [1], the “Solubility in pure water (mg/ml)” value was >500 mg/mL.

As to Sodium salt of β-CD sulfobutyl ether, the “Solubility in pure water (mg/ml)” value in series [1] is >500 mg/mL.
